Data taken from patent US12384789B2, “Compounds for treating Huntington's disease” (PTC Therapeutics, Inc., priority 2017, dated 2025).

These molecules were tested on Endogenous Huntingtin Protein (assay: Endogenous Huntingtin Protein Assay (Meso Scale Discovery ELISA-based electrochemiluminescence)). Conditions: MSD electrochemiluminescence, Table 1.
Assay type: cell-based
Method in brief: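 MSD electrochemiluminescence sandwich ELISA: MW1 (expanded polyQ) or MAB2166 capture antibody at 1 μg/mL, samples incubated overnight at 4° C. Detection with rabbit monoclonal #5656S then SULFO-TAG anti-rabbit antibody, each 0.25 μg/mL for 1 h at room temperature.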

| Compound | IC50 [µM] |
| --- | --- |
| CCN1CCC(c2cc3c(F)cc(-c4nc5c(C)nc(C)cc5s4)cc3nn2)CC1 [Compound 147, 7-(4,6-dimethyl[1,3]thiazolo[4,5-c]pyridin-2-yl)-3-(1-ethylpiperidin-4-yl)-5-fluorocinnoline] | 0.1 to 0.5 |
| Cc1cn2nc(-c3cc(F)c4cc(C5CCN(CCn6cnc7ccccc76)CC5)nnc4c3)cc(C)c2n1 [Compound 159, 3-{1-[2-(1H-benzimidazol-1-yl)ethyl]piperidin-4-yl}-7-(2,8-dimethylimidazo[1,2-b]pyridazin-6-yl)-5-fluorocinnoline] | ≤ 0.1 |
| CCN1CCC(c2cc(F)c3cc(-c4cc(C)c5nn(C)cc5c4)nnc3c2)CC1 [Compound 183, 3-(2,7-dimethyl-2H-indazol-5-yl)-7-(1-ethylpiperidin-4-yl)-5-fluorocinnoline] | ≤ 0.1 |
| Cn1cc2cc(-c3ccc4cc(C5CCNCC5)ccc4n3)ccc2n1 [Compound 1, 2-(2-methyl-2H-indazol-5-yl)-6-(piperidin-4-yl)quinoline] | 1 to 3 |
| Cn1cc2cc(-c3cc(F)c4nc(C5CCNCC5)ncc4c3)cc(C#N)c2n1 [Compound 35, 5-[8-fluoro-2-(piperidin-4-yl)quinazolin-6-yl]-2-methyl-2H-indazole-7-carbonitrile] | ≤ 0.1 |
| Cc1cn2nc(-c3cc4c(F)cc(C5=CCNCC5)cc4nn3)cc(C)c2n1 [Compound 167, 3-(2,8-dimethylimidazo[1,2-b]pyridazin-6-yl)-5-fluoro-7-(1,2,3,6-tetrahydropyridin-4-yl)cinnoline] | ≤ 0.1 |
| CCN1CCC(c2cc(F)c3cc(-c4cc(C)c5nc(C)cn5n4)nnc3c2)CC1 [Compound 186, 3-(2,8-dimethylimidazo[1,2-b]pyridazin-6-yl)-7-(1-ethylpiperidin-4-yl)-5-fluorocinnoline] | ≤ 0.1 |
| Cc1cn2nc(-c3cc(F)c4cc(C5CCNCC5)nnc4c3)cc(C(C)C)c2n1 [Compound 211, 5-fluoro-7-[2-methyl-8-(propan-2-yl)imidazo[1,2-b]pyridazin-6-yl]-3-(piperidin-4-yl)cinnoline] | ≤ 0.1 |
| Cc1cn2nc(-c3cc(F)c4cc(C5CCNC5)nnc4c3)cc(C)c2n1 (stereo not shown) [Compound 143, 7-(2,8-dimethylimidazo[1,2-b]pyridazin-6-yl)-5-fluoro-3-(pyrrolidin-3-yl)cinnoline] | ≤ 0.1 |
| CCN1CCC(c2cc3c(F)cc(-c4cc(C)c5nc(C)sc5n4)cc3nn2)CC1 [Compound 135, 7-(2,7-dimethyl[1,3]thiazolo[5,4-b]pyridin-5-yl)-3-(1-ethylpiperidin-4-yl)-5-fluorocinnoline] | ≤ 0.1 |
| Cc1cn2nc(-c3cc(F)c4cc(C5CCN(C(C)C)CC5)nnc4c3)cc(C)c2n1 [Compound 78, 7-(2,8-dimethylimidazo[1,2-b]pyridazin-6-yl)-5-fluoro-3-[1-(propan-2-yl)piperidin-4-yl]cinnoline] | ≤ 0.1 |
| Cc1cn2nc(-c3cc(F)c4cc(C5CCCN(CCF)CC5)nnc4c3)cc(C)c2n1 (stereo not shown) [Compound 199, 7-(2,8-dimethylimidazo[1,2-b]pyridazin-6-yl)-5-fluoro-3-[1-(2-fluoroethyl)azepan-4-yl]cinnoline] | ≤ 0.1 |
| Cn1cc2cc(-c3cc(F)c4nc(C5CCNCC5)nnc4c3)cc(F)c2n1 [Compound 32, 5-fluoro-7-(7-fluoro-2-methyl-2H-indazol-5-yl)-3-(piperidin-4-yl)-1,2,4-benzotriazine] | ≤ 0.1 |
| CCN1CC=C(c2cc(F)c3cc(-c4cc(F)c5nn(C)cc5c4)nnc3c2)CC1 [Compound 153, 7-(1-ethyl-1,2,3,6-tetrahydropyridin-4-yl)-5-fluoro-3-(7-fluoro-2-methyl-2H-indazol-5-yl)cinnoline] | ≤ 0.1 |
| CCN1CCC(c2cc3c(F)cc(-c4cc(C)c5nc(C)[nH]c5n4)cc3nn2)CC1 [Compound 132, 7-(2,7-dimethyl-3H-imidazo[4,5-b]pyridin-5-yl)-3-(1-ethylpiperidin-4-yl)-5-fluorocinnoline] | ≤ 0.1 |
| Cn1cc2cc(-c3cc(F)c4cc(C5CCNCC5)nnc4c3)cc(C#N)c2n1 [Compound 104, 5-[5-fluoro-3-(piperidin-4-yl)cinnolin-7-yl]-2-methyl-2H-indazole-7-carbonitrile] | ≤ 0.1 |
| CC[C@H]1CC(c2cc3c(F)cc(-c4cc(C)c5nc(C)cn5n4)cc3nn2)C[C@H](CC)N1C (stereo partly drawn) [Compound 131, 3-[(2S,6S)-2,6-diethyl-1-methylpiperidin-4-yl]-7-(2,8-dimethylimidazo[1,2-b]pyridazin-6-yl)-5-fluorocinnoline] | ≤ 0.1 |
| Cc1nc2c(C)cc(-c3cc(F)c4nc(C5CCNCC5)nnc4c3)cc2[nH]1 [Compound 63, 7-(2,4-dimethyl-1H-benzimidazol-6-yl)-5-fluoro-3-(piperidin-4-yl)-1,2,4-benzotriazine] | ≤ 0.1 |
| Cc1cc(-c2cc(F)c3cc(C4CCNCC4)ncc3c2)cc2cn(C)nc12 [Compound 71, 7-(2,7-dimethyl-2H-indazol-5-yl)-5-fluoro-3-(piperidin-4-yl)isoquinoline] | ≤ 0.1 |
| CCN1CCC(c2cc3c(F)cc(-c4cc(CCO)c5nc(C)cn5n4)cc3nn2)CC1 [Compound 206] | ≤ 0.1 |
| Cc1cc(-c2cc(F)c3nc(C4CCNCC4)nnc3c2)cc2cn(C)nc12 [Compound 33, 7-(2,7-dimethyl-2H-indazol-5-yl)-5-fluoro-3-(piperidin-4-yl)-1,2,4-benzotriazine] | ≤ 0.1 |
| Cc1cn2nc(-c3cc4c(F)cc(C5CCNCC5)cc4nn3)cc(C)c2n1 [Compound 185, 3-(2,8-dimethylimidazo[1,2-b]pyridazin-6-yl)-5-fluoro-7-(piperidin-4-yl)cinnoline] | ≤ 0.1 |
| Cn1cc2cc(-c3ccc4nc(C5CCNCC5)ccc4c3)ccc2n1 [Compound 3, 6-(2-methyl-2H-indazol-5-yl)-2-(piperidin-4-yl)quinolone] | 0.1 to 0.5 |
| Cc1cn2nc(-c3cc(F)c4cc(C5C[C@@H](C)N(C)[C@@H](C)C5)nnc4c3)cc(C)c2n1 (stereo partly shown) [Compound 161] | ≤ 0.1 |
| Cc1cn2nc(-c3cc(F)c4nc(C5CCNCC5)nnc4c3)cc(C)c2n1 [Compound 46, 7-(2,8-dimethylimidazo[1,2-b]pyridazin-6-yl)-5-fluoro-3-(piperidin-4-yl)-1,2,4-benzotriazine] | ≤ 0.1 |
| Cc1cn2nc(-c3cc(F)c4cc(C5CCNCC5)nnc4c3)cc(CCO)c2n1 [Compound 207, 2-{6-[5-fluoro-3-(piperidin-4-yl)cinnolin-7-yl]-2-methylimidazo[1,2-b]pyridazin-8-yl}ethan-1-ol] | ≤ 0.1 |
| CCc1cc(-c2cc(F)c3cc(C4CCNCC4)nnc3c2)nn2cc(C)nc12 [Compound 105, 7-(8-ethyl-2-methylimidazo[1,2-b]pyridazin-6-yl)-5-fluoro-3-(piperidin-4-yl)cinnoline] | ≤ 0.1 |

Now from value to molecule:

| IC50 [µM] | Compound |
| --- | --- |
| ≤ 0.1 | Cc1cn2nc(-c3cc(F)c4cc(C5C[C@H](C)N[C@@H](C)C5)nnc4c3)cc(C)c2n1 (stereo partly drawn) [Compound 87, 7-(2,8-dimethylimidazo[1,2-b]pyridazin-6-yl)-3-[(2S,6S)-2,6-dimethylpiperidin-4-yl]-5-fluorocinnoline] |
| 0.1 to 0.5 | Cc1cn2nc(-c3cc(F)c4cc(C5=CC(C)(C)NC(C)(C)C5)nnc4c3)cc(C)c2n1 [Compound 208, 7-(2,8-dimethylimidazo[1,2-b]pyridazin-6-yl)-5-fluoro-3-(2,2,6,6-tetramethyl-1,2,3,6-tetrahydropyridin-4-yl)cinnoline] |
| ≤ 0.1 | Cc1nc2c(C)cc(-c3cc(F)c4cc(C5C[C@@H](C)N(C)[C@@H](C)C5)nnc4c3)nc2o1 (stereo partly drawn) [Compound 226, 5-(5-fluoro-3-((2S,4R,6R)-1,2,6-trimethylpiperidin-4-yl)cinnolin-7-yl)-2,7-dimethyloxazolo[5,4-b]pyridine] |
| ≤ 0.1 | COc1cc(-c2cc(F)c3cc(C4CCNCC4)nnc3c2)nn2cc(C)nc12 [Compound 106, 5-fluoro-7-(8-methoxy-2-methylimidazo[1,2-b]pyridazin-6-yl)-3-(piperidin-4-yl)cinnoline] |
| 0.1 to 0.5 | Cc1cn2nc(-c3cc(F)c4cc(N5CCC6(CNC6)C5)nnc4c3)cc(C)c2n1 [Compound 220, 3-(2,6-diazaspiro[3.4]octan-6-yl)-7-(2,8-dimethylimidazo[1,2-b]pyridazin-6-yl)-5-fluorocinnoline] |
| 0.1 to 0.5 | Cn1cc2cc(-c3ncc4cc(C5CCNCC5)ccc4n3)ccc2n1 [Compound 10, 2-(2-methyl-2H-indazol-5-yl)-6-(piperidin-4-yl)quinazoline] |
| ≤ 0.1 | Cc1cn2nc(-c3cc(F)c4cc(C5CCNCC5)ncc4c3)cc(C)c2n1 [Compound 72, 7-(2,8-dimethylimidazo[1,2-b]pyridazin-6-yl)-5-fluoro-3-(piperidin-4-yl)isoquinoline] |
| ≤ 0.1 | Cc1nc2c(C)cc(-c3cc(F)c4cc(C5CCNCC5)nnc4c3)nc2o1 [Compound 148, 7-(2,7-dimethyl[1,3]oxazolo[5,4-b]pyridin-5-yl)-5-fluoro-3-(piperidin-4-yl)cinnoline] |
| 0.1 to 0.5 | COCCOc1cc(-c2cc(F)c3nc(C4CCNCC4)ccc3c2)nn2cc(C)nc12 [Compound 53, 8-fluoro-6-[8-(2-methoxyethoxy)-2-methylimidazo[1,2-b]pyridazin-6-yl]-2-(piperidin-4-yl)quinoline] |
| ≤ 0.1 | CCN1CCC(c2cc3c(F)cc(-c4cc(C#N)c5nc(C)cn5n4)cc3nn2)CC1 [Compound 114, 6-[3-(1-ethylpiperidin-4-yl)-5-fluorocinnolin-7-yl]-2-methylimidazo[1,2-b]pyridazine-8-carbonitrile] |
| 0.1 to 0.5 | Cc1cc2cc(-c3cc(F)c4cc(C5CCNCC5)nnc4c3)[nH]c2c(C)n1 [Compound 191, 7-(5,7-dimethyl-1H-pyrrolo[2,3-c]pyridin-2-yl)-5-fluoro-3-(piperidin-4-yl)cinnoline] |
| ≤ 0.1 | CCN1CCC(c2cc3c(F)cc(-c4nc5cc(C)nc(C)c5s4)cc3nn2)CC1 [Compound 197, 7-(4,6-dimethyl[1,3]thiazolo[5,4-c]pyridin-2-yl)-3-(1-ethylpiperidin-4-yl)-5-fluorocinnoline] |
| ≤ 0.1 | Cc1cc(-c2ccc3nc(C4CCNCC4)ccc3c2)cc2cn(C)nc12 [Compound 15, 6-(2,7-dimethyl-2H-indazol-5-yl)-2-(piperidin-4-yl)quinoline] |
